Experiments:
[1] = system: human embryonic stem cells line H1; experiment: Definitive endoderm differentiation of H1 cells, cluster seeding: real-time PCR gene expression; format: cell-based; conditions: 1-100 ng/ml of insulin, BSA medium, day 4, real-time PCR
Procedure: Cells of the human embryonic stem cells line H1 (p40-p52) were cultured on MATRIGEL® (1:30 dilution) (BD Biosciences; Cat #356231)-coated dishes in MEF-CM (mouse embryonic fibroblast conditioned media) supplemented with 16 ng/ml of FGF2 (Catalog#100-18B, PeproTech, NJ), and differentiated into cells expressing markers characteristic of the definitive endoderm lineage as follows: • a. RPMI medium supplemented with 2% fatty acid-free BSA (Catalog#68700, Proliant, IA), and 100 ng/ml activin A (R&D Systems, MN) plus 20 ng/ml WNT-3a (Catalog#1324-WN-002, R&D Systems, MN) for one day, then • b. RPMI medium supplemented with 2% BSA and 100 ng/ml activin A for an additional three days.
In some of the cultures, the cells were treated with the following dilution of ITS-X (Catalogue#51500-056, Invitrogen, CA): 0, 1:10^6, 1:5×10^5, 1:10^5, 1:10^4. ITS-X is a serum replacement supplemented comprised of 1 mg/ml of Insulin, 0.55 mg/ml of Transferrin, 0.00067 mg/ml of Sodium Selenite, and 0.2 mg/ml of Ethanolamine The range of dilutions of ITS-X correspond to 0, 1 ng/ml, 2 ng/ml, 10 ng/ml, and 100 ng/ml of insulin. As a control, 0.2% FBS (Catalogue#SH30070.03, Hyclone, UT) was used for day 1 of differentiation, 0.5% FBS at day 2 and 2% FBS was used for days 3-4. The FBS treated cultures were not supplemented with ITS-X. […]

[2] = system: human embryonic stem cells line H1; experiment: Definitive endoderm differentiation of H1 cells in FBS medium (GDF8/GSK3B inhibitor) with IGF or insulin: FACS and real-time PCR; format: cell-based; conditions: in the presence of FBS, 10-100 ng/ml, day 4
Procedure: (§1) Cells of the human embryonic stem cells line H1 (p40-p52) were seeded as single cells at a density of 100000 cells/cm^2 on MATRIGEL® (1:30 dilution) (BD Biosciences; Cat #356231)-coated dishes in MEF-CM (mouse embryonic fibroblast conditioned media) supplemented with 16 ng/ml of FGF2 (Catalog#100-18B, PeproTech, NJ) and 10 μM of Y27632 (Rock inhibitor, Catalogue#Y0503, Sigma, Mo.). 72 hrs post seeding, cultures were differentiated into definitive endoderm (DE) as follows: • a. with MCDB-131 (Catalogue#10372-019, Invitrogen, CA) medium supplemented with 0.2% FBS (Catalogue#SH30070.03, Hyclone, UT), 0.0025 g/ml sodium bicarbonate (Catalogue #S3187, Sigma, Mo.), 1× GlutaMax™ (Catalogue #35050-079, Invitrogen, Ca) and 100 ng/ml GDF8 (Catalogue#120-00, PeproTech, NJ) plus 2.5 μM of the GSK3B inhibitor 14-Prop-2-en-1-yl-3,5,7,14,17,23,27-heptaazatetracyclo[19.3.1.1˜2,6˜0.1˜8,12˜]heptacosa-1(25),2(27),3,5,8(26),9,11,21,23-nonaen-16-one for one day, then • b. MCDB-131 medium supplemented with FBS, sodium bicarbonate, Glutamax, and 100 ng/ml GDF8 for an additional three days.
0.5% FBS was used for day 2 and 2% FBS was used for days 3-4. Besides regular FBS, heat treated FBS (Catalogue#F4135, Sigma, Mo.) and charcoal stripped treated FBS (Catalogue#F6765, Sigma, Mo.) were also tested. Some of the FBS treated cultures were also treated with various concentrations of IGF (10-100 ng/ml) or insulin (10-100 ng/ml).
At day 4, samples were collected for analysis by FACS and real-time PCR.

[3] = system: ES cells; conditions: 200 ng/ml of insulin added to 2% FBS, MEF-CM, activin A; cited from earlier work
[4] = system: human embryonic stem cells line H1; experiment: Definitive endoderm differentiation of H1 cells, single cell seeding (activin A/WNT-3a, MCDB-131): FACS for CXCR4 and CD9; format: cell-based; conditions: for % CXCR4 + CD9− / % CXCR4 − CD9+ / % CXCR4 − CD9−: single cell seeding, day 4
Procedure: as §1, with “a.” for “a. with”, “2% fatty acid-free BSA (Catalog#68700, Proliant, IA),” for “0.2% FBS (Catalogue#SH30070.03, Hyclone, UT),”, “activin A (R&D Systems, MN)” for “GDF8 (Catalogue#120-00, PeproTech, NJ)”, “20 ng/ml WNT-3a (Catalog#1324-WN-002, R&D Systems, MN)” for “2.5 μM of the GSK3B inhibitor 14-Prop-2-en-1-yl-3,5,7,14,17,23,27-heptaazatetracyclo[19.3.1.1˜2,6˜0.1˜8,12˜]heptacosa-1(25),2(27),3,5,8(26),9,11,21,23-nonaen-16-one”, “2% BSA,” for “FBS,”, “activin A” for “GDF8”
(§2) In some of the cultures, the cells were treated with the following concentrations of insulin (Catalogue#19278, Sigma, Mo.): 0, 1, 10, 100, 1000, or 10000 ng/ml. At day 4, samples were collected for FACS and gene expression analysis using real-time PCR.
FIG. 5 depicts the CXCR4 and CD9 expression profile of the various treatments as measured by FACS analysis.

[5] = system: human embryonic stem cells line H1; experiment: Definitive endoderm differentiation of H1 cells, single cell seeding (activin A/WNT-3a): real-time PCR gene expression; format: cell-based; conditions: BSA medium
Procedure: as §1, with “a.” for “a. with”, “2% fatty acid-free BSA (Catalog#68700, Proliant, IA),” for “0.2% FBS (Catalogue#SH30070.03, Hyclone, UT),”, “activin A (R&D Systems, MN)” for “GDF8 (Catalogue#120-00, PeproTech, NJ)”, “20 ng/ml WNT-3a (Catalog#1324-WN-002, R&D Systems, MN)” for “2.5 μM of the GSK3B inhibitor 14-Prop-2-en-1-yl-3,5,7,14,17,23,27-heptaazatetracyclo[19.3.1.1˜2,6˜0.1˜8,12˜]heptacosa-1(25),2(27),3,5,8(26),9,11,21,23-nonaen-16-one”, “2% BSA,” for “FBS,”, “activin A” for “GDF8”
as §2

[6] = super physiological insulin (1-10 μg/ml), BSA medium

**Q.** For insulin, which “expression of markers of definitive endoderm (FOXA2, SOX17, CXCR4), mesenchyme (T), extraembryonic (SOX7, AFP)” value [1] is on record?
**A.** did not significantly affect

**Q.** And the “expression of the pluripotency marker NANOG” value [2]?
**A.** upregulated

**Q.** What about the “markers associated with definitive endoderm such as SOX17 and CCXR4” value [2] of the same substance?
**A.** dose dependently down regulated

**Q.** What about the “decrease of the expression of SOX17” value [3] of the same substance?
**A.** approximately 70%

**Q.** And the “% CXCR4 + CD9−” value ([4]; BSA + 1 ng/ml insulin)?
**A.** 96%

**Q.** What about the “% CXCR4 − CD9+” value ([4]; BSA + 1 ng/ml insulin) of the same substance?
**A.** 1.5%

**Q.** And the “% CXCR4 − CD9−” value ([4]; BSA + 1 ng/ml insulin)?
**A.** 0.7%

**Q.** What about the “% CXCR4 + CD9−” value ([4]; BSA + 10 ng/ml insulin) of the same substance?
**A.** 95%

**Q.** What about the “% CXCR4 − CD9+” value ([4]; BSA + 10 ng/ml insulin) of the same substance?
**A.** 1.4%

**Q.** And the “% CXCR4 − CD9−” value ([4]; BSA + 10 ng/ml insulin)?
**A.** 0.7%

**Q.** And the “% CXCR4 + CD9−” value ([4]; BSA + 100 ng/ml insulin)?
**A.** 90%

**Q.** And the “% CXCR4 − CD9+” value ([4]; BSA + 100 ng/ml insulin)?
**A.** 4.1%

**Q.** And the “% CXCR4 − CD9−” value ([4]; BSA + 100 ng/ml insulin)?
**A.** 2%

**Q.** And the “% CXCR4 + CD9−” value ([4]; BSA + 1 μg/ml insulin)?
**A.** 90%

**Q.** What about the “% CXCR4 − CD9+” value ([4]; BSA + 1 μg/ml insulin) of the same substance?
**A.** 3.6%

**Q.** And the “% CXCR4 − CD9−” value ([4]; BSA + 1 μg/ml insulin)?
**A.** 2.2%

**Q.** What about the “% CXCR4 + CD9−” value ([4]; BSA + 10 μg/ml insulin) of the same substance?
**A.** 84%

**Q.** And the “% CXCR4 − CD9+” value ([4]; BSA + 10 μg/ml insulin)?
**A.** 6.6%

**Q.** And the “% CXCR4 − CD9−” value ([4]; BSA + 10 μg/ml insulin)?
**A.** 4.7%

**Q.** What about the “CXCR4−CD9+ fraction” value [4, 6] of the same substance?
**A.** increase in expression

**Q.** What about the “percentage of CXCR4+CD9− cells” value [4, 6] of the same substance?
**A.** decrease in the percentage

**Q.** And the “expression of markers associated with definitive endoderm (FOXA2, SOX17, CER1, CXCR4)” value ([5]; 1-100 ng/ml insulin, day 4)?
**A.** did not significantly affect

**Q.** What about the “expression of NANOG” value ([5]; 1-10 μg/ml of insulin) of the same substance?
**A.** did increase expression
